Results on 16 compounds are retold here after US10106524B2, “2,3,4,5-tetrahydropyridin-6-amine and 3,4-dihydro-2H-pyrrol-5-amine compound inhibitors of beta-secretase” (Janssen Pharmaceutica NV, priority 2015, dated 2018).

Each structure is given as a SMILES string.

For test [1], the target named is T1, recombinant BACE1 protein (Homo sapiens, UniProt P56817).
T1 construct: recombinant BACE1 protein in a final concentration of 1 μg/ml
Put plainly: BACE1 biochemical FRET based assay - Method 2. Particulars: BACE1 0.04 μg/ml, 450 minutes, 20 μM substrate, pH 5.0; read-out: Biochemical FRET based assay- Method 2 pIC50 (converted). The text has this:
BACE1 Biochemical FRET Based Assay
(§1) This assay is a Fluorescence Resonance Energy Transfer Assay (FRET) based assay. The substrate for this assay is an APP derived 13 amino acids peptide that contains the ‘Swedish’ Lys-Met/Asn-Leu mutation of the amyloid precursor protein (APP) beta-secretase cleavage site. This substrate also contains two fluorophores: (7-methoxycoumarin-4-yl) acetic acid (Mca) is a fluorescent donor with excitation wavelength at 320 nm and emission at 405 nm and 2,4-Dinitrophenyl (Dnp) is a proprietary quencher acceptor. […] Upon cleavage by BACE1, the fluorophore Mca is separated from the quenching group Dnp, restoring the full fluorescence yield of the donor. The increase in fluorescence is linearly related to the rate of proteolysis.
Briefly in a 384-well format recombinant BACE1 protein in a final concentration of 0.04 μg/ml is incubated for 450 minutes at room temperature with 20 μM substrate in incubation buffer (50 mM Citrate buffer pH 5.0, 0.05% PEG) in the presence of compound or DMSO. Next the amount of proteolysis is directly measured by fluorescence measurement (excitation at 320 nm and emission at 405 nm) at different incubation times (0, 30, 60, 90, 120 and 450 min). For every experiment a time curve (every 30 min between 0 min and 120 min) is used to determine the time where we find the lowest basal signal of the high control. The signal at this time (Tx) is used to subtract from the signal at 450 min. Results are expressed in RFU, as difference between T450 and Tx.
(§2) A best-fit curve is fitted by a minimum sum of squares method to the plot of % Controlmin versus compound concentration. From this an IC50 value (inhibitory concentration causing 50% inhibition of activity) can be obtained.

For test [2], the system named is Abeta 1-42 produced and secreted by SKNBE2 cells expressing hAPP695. Nature of the test: Cellular αLisa assay in SKNBE2 cells - Abeta 42. The class given is cell-based, human. Conditions: Homo sapiens, incubated for 18 hours, read-out: Cellular αLisa assay in SKNBE2 cells Abeta 42 pIC50 (converted). The protocol: Cellular αLisa Assay in SKNBE2 Cells
In two αLisa assays the levels of Abeta total and Abeta 1-42 produced and secreted into the medium of human neuroblastoma SKNBE2 cells are quantified. The assay is based on the human neuroblastoma SKNBE2 expressing the wild type Amyloid Precursor Protein (hAPP695). The compounds are diluted and added to these cells, incubated for 18 hours and then measurements of Abeta 1-42 and Abeta total are taken. Abeta total and Abeta 1-42 are measured by sandwich αLisa. αLisa is a sandwich assay using biotinylated antibody AbN/25 attached to streptavidin coated beads and antibody Ab4G8 or cAb42/26 conjugated acceptor beads for the detection of Abeta total and Abeta 1-42 respectively. In the presence of Abeta total or Abeta 1-42, the beads come into close proximity. The excitation of the donor beads provokes the release of singlet oxygen molecules that trigger a cascade of energy transfer in the acceptor beads, resulting in light emission. Light emission is measured after 1 hour incubation (excitation at […] and emission at 615 nm).
as §2

Test [3] concerns the target T2, recombinant BACE2 protein (Homo sapiens, UniProt Q9Y5Z0).
T2 construct: recombinant BACE2 protein in a final concentration of 0.4 μg/nil
T2 sequence (Q9Y5Z0 63-518): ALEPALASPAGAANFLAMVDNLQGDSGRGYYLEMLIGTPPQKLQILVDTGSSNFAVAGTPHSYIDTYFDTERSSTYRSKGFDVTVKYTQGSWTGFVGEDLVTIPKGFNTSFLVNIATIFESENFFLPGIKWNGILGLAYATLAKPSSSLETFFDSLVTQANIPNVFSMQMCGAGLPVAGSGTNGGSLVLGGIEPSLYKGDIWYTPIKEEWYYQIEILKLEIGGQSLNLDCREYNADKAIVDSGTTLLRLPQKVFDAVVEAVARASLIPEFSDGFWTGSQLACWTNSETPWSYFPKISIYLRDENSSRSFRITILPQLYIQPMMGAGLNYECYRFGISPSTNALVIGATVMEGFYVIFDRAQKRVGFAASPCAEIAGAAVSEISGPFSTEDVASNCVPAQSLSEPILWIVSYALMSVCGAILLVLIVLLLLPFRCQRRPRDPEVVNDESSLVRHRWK
Put plainly: BACE2 biochemical FRET based assay. Conditions: BACE2 0.4 μg/nil, 450 minutes, 10 μM substrate, pH 5.0; read-out: Biochemical FRET based assay pIC50 (BACE2) (converted).
Excerpt: BACE2 Biochemical FRET Based Assay
as §1, with “assay” for “assay is an APP derived 13 amino acids peptide that”, “the beta-secretase,” for “BACE1,”
Briefly in a 384-well format recombinant BACE2 protein in a final concentration of […] is incubated for 450 minutes at room temperature with 10 μM substrate in incubation buffer (50 mM Citrate buffer pH 5.0, 0.05% PEG, no DMSO) in the absence or presence of compound. Next the amount of proteolysis is directly measured by fluorescence measurement at T=0 and T=450 (excitation at 320 nm and emission at 405 nm). Results are expressed in RFU (Relative Fluorescence Units), as difference between T450 and T0.
as §2

T1 sequence (P56817 46-501): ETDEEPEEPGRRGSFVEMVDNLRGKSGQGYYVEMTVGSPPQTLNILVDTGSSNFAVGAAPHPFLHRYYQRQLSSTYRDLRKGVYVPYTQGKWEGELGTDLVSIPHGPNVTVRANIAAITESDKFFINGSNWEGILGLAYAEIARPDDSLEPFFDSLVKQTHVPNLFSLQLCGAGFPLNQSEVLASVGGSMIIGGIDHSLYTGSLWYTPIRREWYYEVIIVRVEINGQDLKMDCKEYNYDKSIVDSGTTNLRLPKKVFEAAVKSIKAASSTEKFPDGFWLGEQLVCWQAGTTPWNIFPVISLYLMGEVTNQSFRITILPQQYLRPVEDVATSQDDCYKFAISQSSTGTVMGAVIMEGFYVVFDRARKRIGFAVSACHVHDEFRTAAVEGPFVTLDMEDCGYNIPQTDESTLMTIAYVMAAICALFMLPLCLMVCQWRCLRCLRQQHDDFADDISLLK

In the case of `CC1(c2cc(Nc3ncccc3C#N)ccc2F)N=C(N)CC1C(F)(F)F` (racemic) [Compound 22, (±)-2-[3-[(2S*,3R*)-5-amino-2-methyl-3-(trifluoromethyl)-3,4-dihydropyrrol-2-1]-4-fluoro-anilino]pyridine-3-carbonitrile], the values for the IC50 in test [1], in test [2] and in test [3] were 3720 nM, 776 nM and at least 10000 nM, respectively.

For the compound `C[C@@]1(c2cc(NC(=O)c3ccc(C#N)cn3)ccc2F)N=C(N)C[C@@H]1C(F)(F)F` [Compound 25, N-[3-[(2R,3S)-5-amino-2-methyl-3-(trifluoromethyl)-3,4-dihydropyrrol-2-yl]-4-fluoro-phenyl]-5-cyano-pyridine-2-carboxamide], the IC50 in test [1] was 182 nM; in test [2], 60.3 nM; in test [3], 1070 nM.

`C[C@]1(c2cc(NC(=O)c3ccc(C#N)cn3)ccc2F)N=C(N)C[C@H]1C(F)(F)F` [Compound 26, N-[3-[(2S,3R)-5-amino-2-methyl-3-(trifluoromethyl)-3,4-dihydropyrrol-2-yl]-4-fluoro-phenyl]-5-cyano-pyridine-2-carboxamide]: the IC50 in test [1] was above 10000 nM; in test [2], above 8910 nM; in test [3], above 10000 nM.

Turning to `COc1cnc(C(=O)Nc2ccc(F)c([C@]3(C)N=C(N)C[C@@H]3C(F)(F)F)c2)cn1` [Compound 27, N-[3-[(2R,3S)-5-amino-2-methyl-3-(trifluoromethyl)-3,4-dihydropyrrol-2-yl]-4-fluoro-phenyl]-5-methoxy-pyrazine-2-carboxamide], the IC50 in test [1] was 389 nM; in test [2], 100 nM; in test [3], 5890 nM.

Regarding `COc1cccnc1Nc1ccc(F)c([C@]2(C)N=C(N)C[C@@H]2C(F)(F)F)c1` [Compound 28, N-[3-[(2R,3S)-5-amino-2-methyl-3-(trifluoromethyl)-3,4-dihydropyrrol-2-yl]-4-fluoro-phenyl]-3-methoxy-pyridin-2-amine], the IC50 in test [1] was 1200 nM; in test [2], 347 nM; in test [3], 617 nM.

Consider `COCCOc1cnc(C(=O)Nc2ccc(F)c([C@]3(C)N=C(N)C[C@@H]3C(F)(F)F)c2)cn1` [Compound 29, N-[3-[(2R,3S)-5-amino-2-methyl-3-(trifluoromethyl)-3,4-dihydropyrrol-2-yl]-4-fluoro-phenyl]-5-(2-methoxyethoxy)pyrazine-2-carboxamide], for which the results for the IC50 in test [1], in test [2] and in test [3] were 447 nM, 151 nM and above 20000 nM, respectively.

As to `COCCOc1cnc(C(=O)Nc2ccc(F)c([C@@]3(C)N=C(N)C[C@H]3C(F)(F)F)c2)cn1` [Compound 30, N-[3-[(2S,3R)-5-amino-2-methyl-3-(trifluoromethyl)-3,4-dihydropyrrol-2-yl]-4-fluoro-phenyl]-5-(2-methoxyethoxy)pyrazine-2-carboxamide], the IC50 in test [1] was above 10000 nM; in test [2] it was above 8910 nM; in test [3], above 20000 nM.

In the case of `C[C@@]1(c2cc(NC(=O)c3cnc(OCC(F)(F)F)cn3)ccc2F)N=C(N)C[C@@H]1C(F)(F)F` [Compound 31, N-[3-[(2R,3S)-5-amino-2-methyl-3-(trifluoromethyl)-3,4-dihydropyrrol-2-yl]-4-fluoro-phenyl]-5-(2,2,2-trifluoroethoxy)pyrazine-2-carboxamide], the IC50 in test [1] is 457 nM; in test [2], 257 nM; in test [3], above 20000 nM.

Consider `C[C@]1(c2cc(NC(=O)c3cnc(OCC(F)(F)F)cn3)ccc2F)N=C(N)C[C@H]1C(F)(F)F` [Compound 32, N-[3-[(2S,3R)-5-amino-2-methyl-3-(trifluoromethyl)-3,4-dihydropyrrol-2-yl]-4-fluoro-phenyl]-5-(2,2,2-trifluoroethoxy)pyrazine-2-carboxamide], for which the values for the IC50 in test [1], in test [2] and in test [3] were above 10000 nM, above 8910 nM and above 20000 nM, respectively.

As to `COc1cnc(C(=O)Nc2ccc(F)c([C@@]3(C)N=C(N)C[C@H]3C(F)(F)F)c2)cn1` [Compound 34, N-[3-[(2S,3R)-5-amino-2-methyl-3-(trifluoromethyl)-3,4-dihydropyrrol-2-yl]-4-fluoro-phenyl]-5-methoxy-pyrazine-2-carboxamide], the IC50 in test [1] was above 10000 nM.

In the case of `Cc1nc(C(=O)Nc2ccc(F)c([C@]3(C)N=C(N)C[C@@H]3C(F)(F)F)c2)co1` [Compound 35, N-[3-[(2R,3S)-5-amino-2-methyl-3-(trifluoromethyl)-3,4-dihydropyrrol-2-yl]-4-fluoro-phenyl]-2-methyl-oxazole-4-carboxamide], the IC50 in test [1] was above 10000 nM.

Regarding `Cc1nc(C(=O)Nc2ccc(F)c([C@@]3(C)N=C(N)C[C@H]3C(F)(F)F)c2)co1` [Compound 36, N-[3-[(2S,3R)-5-amino-2-methyl-3-(trifluoromethyl)-3,4-dihydropyrrol-2-yl]-4-fluoro-phenyl]-2-methyl-oxazole-4-carboxamide], the IC50 in test [1] is 1020 nM.

Turning to `COc1cccnc1Nc1ccc(F)c([C@@]2(C)N=C(N)C[C@H]2C(F)(F)F)c1` [Compound 37, N-[3-[(2S,3R)-5-amino-2-methyl-3-(trifluoromethyl)-3,4-dihydropyrrol-2-yl]-4-fluoro-phenyl]-3-methoxy-pyridin-2-amine], in test [1], the IC50 was above 10000 nM.

Take `C[C@]1(c2cc(Nc3ncccc3C#N)ccc2F)N=C(N)C[C@H]1C(F)(F)F` [Compound 38, 2-[3-[(2S,3R)-5-amino-2-methyl-3-(trifluoromethyl)-3,4-dihydropyrrol-2-yl]-4-fluoro-anilino]pyridine-3-carbonitrile]: the IC50 in test [1] is above 10000 nM.

Consider `C[C@@]1(c2cc(Nc3ncccc3C#N)ccc2F)N=C(N)C[C@@H]1C(F)(F)F` [Compound 39, 2-[3-[(2R,3S)-5-amino-2-methyl-3-(trifluoromethyl)-3,4-dihydropyrrol-2-yl]-4-fluoro-anilino]pyridine-3-carbonitrile], for which the IC50 in test [1] is 2950 nM.

Take `C[C@]1(c2cc(NC(=O)c3ccc(Br)cn3)ccc2F)N=C(N)C[C@H]1C(F)(F)F` [Compound 41, N-[3-[(2S,3R)-5-amino-2-methyl-3-(trifluoromethyl)-3,4-dihydropyrrol-2-yl]-4-fluoro-phenyl]-5-bromo-pyridine-2-carboxamide]: the IC50 in test [1] is above 10000 nM.
